System: patients after acute myocardial infarction
Test: Life quality, Seattle Angina Questionnaire (SAQ), same clinical trial
Assay type: in vivo, human
Details: 12 months after treatment
Text: 3508 patients who were in accordance with the diagnostic standards of AMI for 28 days to 2 years and differentiated as Qi deficiency and blood stagnation syndrome by TCM were studied. 0.5 g Chinese medicine composition prepared by the method of EXAMPLE 1 (Coded as QSYQ) was administrated half an hour after meal, 3 times per day.
There were 19 questions in the Seattle angina questionnaire (SAQ), including 5 parts: physical limitation (PL), anginal stability (AS), anginal frequency (AF), treatment satisfaction (TS) and disease perception (DP). After being given necessary explanation by doctors, the questions were answered independently by patients.
They included the overall survival time, angina pectoris score, TCM symptom score and life quality score, where angina pectoris score, TCM symptom score and life quality score were evaluated at randomization, in 1st, 3rd, 6th, 9th, 12th month after treatment and 18th month after follow-up.
All evaluation results of SAQ were described during the period of observation, and Wilcoxon rank sum test was used for inter-group comparison.
The evaluation results in the SAQ were depicted in different observations, and inter-group comparison was tested by Wilcoxon Rank-sum test.

With `CC(=O)Oc1ccccc1C(=O)O` [Control group, aspirine] the “SAQ Question 1-5: Not limited, number of patients” value (FAS) was 863, the “SAQ Question 1-5: Not limited, percent of patients” value (FAS) was “(49.51%)” and the “SAQ Question 1-5: Other reasons, number of patients” value (FAS) was 11. For the same compound, the “SAQ Question 1-5: Other reasons, percent of patients” value (FAS) was “(0.63%)”, the “SAQ Question 1-5: Severely limited, number of patients” value (FAS) was 13 and the “SAQ Question 1-5: Severely limited, percent of patients” value (FAS) was “(0.75%)”. For the same compound, the “SAQ Question 1-5: Slightly limited, number of patients” value (FAS) was 517, the “SAQ Question 1-5: Slightly limited, percent of patients” value (FAS) was “(29.66%)” and the “SAQ Question 1-9: Mildly limited, % of cases” value (FAS) was “(19.60%)”. For the same compound, the “SAQ Question 1-9: Mildly limited, cases” value (FAS) was 336, the “SAQ Question 1-9: Moderately limited, % of cases” value (FAS) was “(20.42%)” and the “SAQ Question 1-9: Moderately limited, cases” value (FAS) was 350. For the same compound, the “SAQ Question 1-9: Not limited, % of cases” value (FAS) was “(4.55%)”, the “SAQ Question 1-9: Not limited, cases” value (FAS) was 78 and the “SAQ Question 1-9: Other reasons, % of cases” value (FAS) was “(5.89%)”. The “SAQ Question 1-9: Other reasons, cases” value (FAS) was 101, the “SAQ Question 1-9: Severely limited, % of cases” value (FAS) was “(31.62%)” and the “SAQ Question 1-9: Severely limited, cases” value (FAS) was 542. For the same compound, the “SAQ Question 1-9: Slightly limited, % of cases” value (FAS) was “(17.91%)”, the “SAQ Question 1-9: Slightly limited, cases” value (FAS) was 307 and the “SAQ 2nd question: Clearly increased, % of cases” value (PP) was “(0.14%)”. For the same compound, the “SAQ 2nd question: Clearly increased, cases” value (PP) was 2, the “SAQ 2nd question: Clearly reduced, % of cases” value (PP) was “(30.04%)” and the “SAQ 2nd question: Clearly reduced, cases” value (PP) was 428. The “SAQ 2nd question: Same, % of cases” value (PP) was “(37.05%)”, the “SAQ 2nd question: Same, cases” value (PP) was 528 and the “SAQ 2nd question: Slightly increased, % of cases” value (PP) was “(1.96%)”. For the same compound, the “SAQ 2nd question: Slightly increased, cases” value (PP) was 28, the “SAQ 2nd question: Slightly reduced, % of cases” value (PP) was “(30.81%)” and the “SAQ 2nd question: Slightly reduced, cases” value (PP) was 439. The “SAQ 3rd question: 1-2 times per week, % of cases” value (PP) was “(30.81%)”, the “SAQ 3rd question: 1-2 times per week, cases” value (PP) was 439 and the “SAQ 3rd question: 1-3 times per day, % of cases” value (PP) was “(1.96%)”. The “SAQ 3rd question: 1-3 times per day, cases” value (PP) was 28, the “SAQ 3rd question: <1 time per week, % of cases” value (PP) was “(30.04%)” and the “SAQ 3rd question: <1 time per week, cases” value (PP) was 428. The “SAQ 3rd question: No onset, % of cases” value (PP) was “(0.00%)”, the “SAQ 3rd question: No onset, cases” value (PP) was 0 and the “SAQ 3rd question: ≧3 times per week, % of cases” value (PP) was “(37.05%)”. The “SAQ 3rd question: ≧3 times per week, cases” value (PP) was 528, the “SAQ 3rd question: ≧4 times per day, % of cases” value (PP) was “(0.14%)” and the “SAQ 3rd question: ≧4 times per day, cases” value (PP) was 2. The “SAQ Question 1-3: Mildly limited, number of patients” value (PP) was 30, the “SAQ Question 1-3: Mildly limited, percent of patients” value (PP) was “(2.11%)” and the “SAQ Question 1-3: Moderately limited, number of patients” value (PP) was 3. For the same compound, the “SAQ Question 1-3: Moderately limited, percent of patients” value (PP) was “(0.21%)”, the “SAQ Question 1-3: Not limited, number of patients” value (PP) was 1225 and the “SAQ Question 1-3: Not limited, percent of patients” value (PP) was “(86.03%)”. The “SAQ Question 1-3: Other reasons, number of patients” value (PP) was 8, the “SAQ Question 1-3: Other reasons, percent of patients” value (PP) was “(0.56%)” and the “SAQ Question 1-3: Severely limited, number of patients” value (PP) was 1. The “SAQ Question 1-3: Severely limited, percent of patients” value (PP) was “(0.07%)”, the “SAQ Question 1-3: Slightly limited, number of patients” value (PP) was 157 and the “SAQ Question 1-3: Slightly limited, percent of patients” value (PP) was “(11.03%)”. The “SAQ Question 1-4: Mildly limited, number of patients” value (PP) was 177, the “SAQ Question 1-4: Mildly limited, percent of patients” value (PP) was “(12.43%)” and the “SAQ Question 1-4: Moderately limited, number of patients” value (PP) was 41. The “SAQ Question 1-4: Moderately limited, percent of patients” value (PP) was “(2.88%)”, the “SAQ Question 1-4: Not limited, number of patients” value (PP) was 724 and the “SAQ Question 1-4: Not limited, percent of patients” value (PP) was “(50.84%)”. For the same compound, the “SAQ Question 1-4: Other reasons, number of patients” value (PP) was 11, the “SAQ Question 1-4: Other reasons, percent of patients” value (PP) was “(0.77%)” and the “SAQ Question 1-4: Severely limited, number of patients” value (PP) was 2. The “SAQ Question 1-4: Severely limited, percent of patients” value (PP) was “(0.14%)”, the “SAQ Question 1-4: Slightly limited, number of patients” value (PP) was 469 and the “SAQ Question 1-4: Slightly limited, percent of patients” value (PP) was “(32.94%)”. For the same compound, the “SAQ Question 1-5: Mildly limited, number of patients” value (PP) was 198, the “SAQ Question 1-5: Mildly limited, percent of patients” value (PP) was “(13.93%)” and the “SAQ Question 1-5: Moderately limited, number of patients” value (PP) was 52. The “SAQ Question 1-5: Moderately limited, percent of patients” value (PP) was “(3.66%)”, the “SAQ Question 1-5: Not limited, number of patients” value (PP) was 736 and the “SAQ Question 1-5: Not limited, percent of patients” value (PP) was “(51.79%)”. The “SAQ Question 1-5: Other reasons, number of patients” value (PP) was 10, the “SAQ Question 1-5: Other reasons, percent of patients” value (PP) was “(0.70%)” and the “SAQ Question 1-5: Severely limited, number of patients” value (PP) was 3. For the same compound, the “SAQ Question 1-5: Severely limited, percent of patients” value (PP) was “(0.21%)” and the “SAQ Question 1-5: Slightly limited, number of patients” value (PP) was 422.

Source: patent publication US9211310B2, “Use of a Chinese medicine composition in preparing medicaments for treating secondary prevention of myocardial infarction” (TASLY PHARMACEUTICAL GROUP CO., LTD, priority 2010, dated 2015)
